Assay results as given in patent publication US4078058A (priority 1976, dated 1978).

What was measured:
Format in all cases: cell-based
[1] = system: bacterial growth; test: Inhibition of bacterial growth in nutrient broth (turbidity), organism not specified; settings: 18-20 hours incubation at 37° C.
Procedure: (§1) In these tests bacterial growth was measured or observed by turbidity in the test tubes containing the inoculated nutrient broth after 18-20 hours incubation at 37° C.

[2] = system: Staph. aureus; test: In vitro inhibition in nutrient broth, Staph. aureus; settings: no growth by 48 hours; inoculum 0.2 ml of 1/10,000 dilution of overnight culture
Procedure: as §1
(§2) *Concentration -- μM/ml which permitted no growth by 48 hours.
(§3) Inoculum = 0.2 ml of 1/10,000 dilution of overnight culture.

[3] = system: Klebsiella pneumoniae; test: In vitro inhibition in nutrient broth, Klebsiella pneumoniae; settings: no growth by 48 hours; inoculum 0.2 ml of 1/10,000 dilution of overnight culture
Procedure: as §1, §2, §3

[4] = system: Esch. coli; test: In vitro inhibition in nutrient broth, Esch. coli; settings: no growth by 48 hours; inoculum 0.2 ml of 1/10,000 dilution of overnight culture
Procedure: as §1, §2, §3

[5] = system: Pseudomonas aeruginosa; test: In vitro inhibition in nutrient broth, Pseudomonas aeruginosa; settings: no growth by 48 hours; inoculum 0.2 ml of 1/10,000 dilution of overnight culture
Procedure: as §1, §2, §3

Compound | concentration inhibiting bacterial growth [1] | Inhibitory concentration, Staph. aureus [2] | Inhibitory concentration, Klebsiella pneumoniae [3] | Inhibitory concentration, Esch. coli [4] | Inhibitory concentration, Pseudomonas aeruginosa [5]
O=[N+]([O-])[O-].O=[N+]([O-])[O-].O=[N+]([O-])[O-].[Ce+3] [Cerous nitrate, cerous nitrate] | at least 1.0 μM per ml | 5.0 μM per ml | 5.0 μM per ml | 2.5 μM per ml | 2.5 μM per ml
O=[N+]([O-])[O-].[Ag+] [Silver nitrate, silver nitrate] |  | 0.005 μM per ml | 0.1 μM per ml | 0.005 μM per ml | 0.025 μM per ml
